Test results as given in patent US20220031690A1, “ANTI-NEURODEGENERATIVE DISEASE AGENT” (Hayashibara Co., Ltd., priority 2018, published 2022).

What was measured:
PC12-HS cells [1] = experiment: Evaluation method B: neurite-outgrowth promoting activity in the presence of NGF; format: cell-based, rat; conditions: for Action on PC12-HS neurite-outgrowth promotion (500 ng/ml) / Neurite-outgrowth rate (%): NGF 10 ng/ml; for Action on PC12-HS neurite-outgrowth promotion (500 ng/ml): 3 days, class of neurite-outgrowth rate
Description: (§1) As a model of the nerve cell, the NGF (nerve growth factor) highly sensitive strain of PC12 cell derived from the rat adrenal pheochromocytoma (hereinafter referred to as “PC12-HS cell”; JCRB cell bank, National Research and Development Institute of Health and Nutrition), which has been widely used as a suitable model for research on human neurodegenerative disease, was used. As the test compound, […] of trimethine cyanine dye compounds; NK-5 (Chemical formula 2), NK-36 (Chemical formula 3), NK-44 (Chemical formula 5) and dye compounds represented by Chemical formulae 12 to 18, and NK-6 (Chemical formula 7), which is a monomethine cyanine dye, were selected. In addition, two kinds of ethylene cross-linked dyes (Chemical formulae 19 and 20), 15 kinds of monomethine cyanine dyes (Chemical formulae 21 to 35), and seven kinds of trimethine cyanine dyes (Chemical formulae 36 to 42), which were expected to have a good neurocyte growth acceleration activity and/or neurite-outgrowth promoting activity in the screening disclosed in Patent literature 6, were also re-evaluated for comparison. The Chemical formulae 12 to 42 are shown below.
(§2) The cyanine dye compounds subjected to the test (purity 97% by mass or more, synthesized by Hayashibara Co., Ltd., Okayama, Japan) were individually dissolved in DMSO (product number “D8418”, commercialized by SIGMA Corporation) at a concentration of 5 mg/ml, and the solutions were then filtered through DMSO-resistant membrane (“Millex-LGS LLG025SS”, commercialized by Millipore Corporation) and stored at 25° C. in a dark condition. At the time of use, they were further diluted with Dulbecco's Medium (hereinafter, abbreviated as “D-MEM medium”, commercialized by Nissui Pharmaceutical Co., Ltd.) supplemented by 10% by volume of fetal bovine serum (FBS), and subjected to the test.
As in the case of evaluation of neurocyte growth accelerating activity (Evaluation method A), 50 μl/well of each test compound solution, prepared by diluting with the culture medium to give a final concentration of 500 ng/ml, and the culture medium containing 20 ng/ml of mouse NGF (mouse derived, final concentration 10 ng/ml, commercialized by Chemicon International, Inc., CA, USA) (50 μl/well) were added to the precultured PC12-HS cells in each well, and then cultured for three days. Culture medium was removed on day 3 of culture, and cells were fixed by adding 100 μl/well of 10% by volume of glutaraldehyde and standing for 20 minutes at room temperature. As a negative control, PC12-HS cells, cultured for three days with culture medium, were fixed with glutaraldehyde similarly as above. Fixed cells were observed under a microscope to assess the neurite-outgrowth. The neurite-outgrowth rate (%) was determined by observing the cells using a microscope by adjusting the magnitude to give about 100 cells in one visual field, counting the number of cells having neurites twice or more in length of the cell body (major axis), dividing by the total number of cells in the same visual field, and multiplying by 100. Measurements were carried out at three points for each test compound. […] In this experiment, the neurite-outgrowth rate was 5% or less when NGF was added (final concentration 10 ng/ml) without the addition of the test compound.
The method was based on Experiment 1-1, except the concentrations of the test compounds were set to three doses of 40 nM, 200 nM and 1,000 nM for evaluation method A (neurocyte growth accelerating effect), and two doses of 200 nM and 1,000 nM for evaluation method B (neurite outgrowth promoting effect). Measurements were performed in triplicate for each concentration of each test compound in both evaluation methods A and B. The result of the evaluation method A was expressed as a cell proliferation rate (%) by determined a relative percentage (%) when the value of the negative control to which the test compound was not added, was regarded as 100%. […]

PC12-HS cells [2] = experiment: Evaluation method A: neurocyte growth acceleration activity (Alamar blue); format: cell-based, rat; conditions: for Action on PC12-HS growth acceleration (50 ng/ml): 3 days culture, class of cell proliferation rate vs negative control = 100%; for Cell proliferation rate (%): negative control = 100%; for neurocyte growth acceleration activity (in words): 40, 200 and 1,000 nM, comment on Table 2
Description: as §1, §2
PC12-HS cells were subjected to tests after frozen stock cultured cells were thawed and cultured with a D-MEM medium supplemented with 10% by volume of FBS (Hereinafter, when the term “culture” is simply used, it means that the cells are statically cultured in an incubator controlled at 37° C. under 5% by volume of CO2 conditions). Cells used in the test were collected using 0.25% by weight of trypsin solution, then diluted with a D-MEM medium supplemented with 10% by volume of FBS (hereinafter referred to as “culture medium”), seeded into collagen-coated 96-well plates (commercialized by Falcon, Tokyo, Japan, “Microtest Plate, Cell Culture, Flat Bottom”) to obtain 5×10^3 cells/100 μl/well, and cultured for 24 hours (hereinafter referred to as “pre-culture”). Then, the above test samples were diluted with a culture medium, and 100 μl of diluted solution of the test compounds were added to each well so that the final concentration of the test compounds in the wells became 50 ng/ml, and the cells were cultured for another three days. On day 3, the cultures supernatant was removed from each well, 200 μl of culture medium containing 10% by volume of Alamar blue reagents (commercialized by Trek Diagnostic Systems Inc., Ohio, USA) were added to each well, and the cells were cultured for 6 hours. After culturing for 6 hours, the cells were measured for fluorescent intensity at a wavelength of 544-590 nm by “FlexStation 3”, a product name of a fluorescent plate reader (commercialized by Japan Molecular Devices Corporation, Tokyo, Japan). […] Measurements were performed for each test compound in triplicate, and the mean values were shown.
The method was based on Experiment 1-1, except the concentrations of the test compounds were set to three doses of 40 nM, 200 nM and 1,000 nM for evaluation method A (neurocyte growth accelerating effect), and two doses of 200 nM and 1,000 nM for evaluation method B (neurite outgrowth promoting effect). […]

SMILES | Action on PC12-HS neurite-outgrowth promotion (500 ng/ml) (PC12-HS cells [1]) | Action on PC12-HS growth acceleration (50 ng/ml) (PC12-HS cells [2]) | also measured
CCN1C(C)=CSC1=CC=Cc1scc(C)[n+]1CC.[I-] [NK-67] | ◯ (When the mean neurite-outgrowth rate was 25 to 44%, it was judged to be equivalent to the positive control NK-4 (“circle”)) |  | 
CCCCCCCN1C(C)=CSC1=Cc1scc(C)[n+]1CCCCCCC.[I-] [NK-266] | ◯ (When the mean neurite-outgrowth rate was 25 to 44%, it was judged to be equivalent to the positive control NK-4 (“circle”)) |  | 
CCN1C(=Cc2cc[n+](CC)c3ccccc23)C=Cc2ccccc21.[I-] [NK-276] | ◯ (When the mean neurite-outgrowth rate was 25 to 44%, it was judged to be equivalent to the positive control NK-4 (“circle”)) |  | 
CCN1C(=CC=Cc2sc3ccc4ccccc4c3[n+]2CC)Sc2ccc3ccccc3c21.[I-] [NK-382] | ◯ (When the mean neurite-outgrowth rate was 25 to 44%, it was judged to be equivalent to the positive control NK-4 (“circle”)) |  | 
CCCCN1C(C)=CSC1=Cc1scc(C)[n+]1CCCC.[I-] [NK-399] | ◯ (When the mean neurite-outgrowth rate was 25 to 44%, it was judged to be equivalent to the positive control NK-4 (“circle”)) |  | 
CN(C)c1ccc(C=Cc2oc3ccccc3[n+]2C)cc1.[I-] [NK-528] | ◯ (When the mean neurite-outgrowth rate was 25 to 44%, it was judged to be equivalent to the positive control NK-4 (“circle”)) | ◯ (the relative value of 130% to 169% was judged to be equivalent to NK-4 (“circle”)) | 
CC[n+]1ccccc1C=Cc1ccc(N(C)C)cc1.[I-] [NK-557] | ◯ (When the mean neurite-outgrowth rate was 25 to 44%, it was judged to be equivalent to the positive control NK-4 (“circle”)) |  | 
Cc1ccc2c(c1)SC(=Cc1sc3cc(C)ccc3[n+]1C)N2C.[I-] [NK-594] | ◯ (When the mean neurite-outgrowth rate was 25 to 44%, it was judged to be equivalent to the positive control NK-4 (“circle”)) |  | 
CCN1C(=CC=Cc2cc[n+](CC)c3ccccc23)Oc2ccccc21.[I-] [NK-741] | ◯ (When the mean neurite-outgrowth rate was 25 to 44%, it was judged to be equivalent to the positive control NK-4 (“circle”)) |  | 
CCN1C(=Cc2oc3ccccc3[n+]2CC)Oc2ccccc21.[I-] [NK-863] | ◯ (When the mean neurite-outgrowth rate was 25 to 44%, it was judged to be equivalent to the positive control NK-4 (“circle”)) |  | 
CCN1C(=Cc2ccc3ccccc3[n+]2CC)C=Cc2ccccc21.[Br-] [NK-1046] | ◯ (When the mean neurite-outgrowth rate was 25 to 44%, it was judged to be equivalent to the positive control NK-4 (“circle”)) |  | 
CCN1C(=Cc2oc3ccccc3[n+]2CC)Sc2ccccc21.[I-] [NK-1049] | ◯ (When the mean neurite-outgrowth rate was 25 to 44%, it was judged to be equivalent to the positive control NK-4 (“circle”)) |  | 
O=C1/C(=C\c2ccccc2)SC(=S)N1c1ccccc1 [NK-1075] |  | ◯ (the relative value of 130% to 169% was judged to be equivalent to NK-4 (“circle”)) | 
CC1=NN(c2ccccc2)C(=O)/C1=C\c1ccccc1 [NK-1076] |  | ◯ (the relative value of 130% to 169% was judged to be equivalent to NK-4 (“circle”)) | 
CC1=NN(c2ccccc2)C(=O)/C1=C\c1ccc(N(C)C)cc1 [NK-1107] |  | ◯ (the relative value of 130% to 169% was judged to be equivalent to NK-4 (“circle”)) | 
CC(=Cc1oc2ccccc2[n+]1C)C=C1Oc2ccccc2N1C.[I-] [NK-1300] | ◯ (When the mean neurite-outgrowth rate was 25 to 44%, it was judged to be equivalent to the positive control NK-4 (“circle”)) |  | 
CCN1C(=O)/C(=C\C=C\c2sc(=S)n(CC)c2O)SC1=S [NK-1451] |  | ◯ (the relative value of 130% to 169% was judged to be equivalent to NK-4 (“circle”)) | 
CCN1C(=Cc2sc3ccccc3[n+]2CC)Sc2ccccc21.[Br-] [NK-1560] | ◯ (When the mean neurite-outgrowth rate was 25 to 44%, it was judged to be equivalent to the positive control NK-4 (“circle”)) |  | 
CN1C(=CC2=[N+](C)c3ccccc3C2(C)C)Sc2ccccc21.[I-] [NK-1570] | ◯ (When the mean neurite-outgrowth rate was 25 to 44%, it was judged to be equivalent to the positive control NK-4 (“circle”)) |  | 
CN1C(=CC2=[N+](C)c3ccccc3C2(C)C)Oc2ccccc21.[I-] [NK-1684] | ◯ (When the mean neurite-outgrowth rate was 25 to 44%, it was judged to be equivalent to the positive control NK-4 (“circle”)) |  | 
O=C1/C(=C\C=C\c2sc3ccccc3c2O)Sc2ccccc21 [NK-1741] |  | ◯ (the relative value of 130% to 169% was judged to be equivalent to NK-4 (“circle”)) | 
CC1(C)C(=CC=CC2=[N+](CCO)c3ccccc3C2(C)C)N(CCO)c2ccccc21.[Br-] [NK-1883] |  |  | Neurite-outgrowth rate (%) (PC12-HS cells [1]; 1.000 nM): 13.3%; Neurite-outgrowth rate (%) (PC12-HS cells [1]; 200 nM): 13.3%; Cell proliferation rate (%) (PC12-HS cells [2]; 1.000 nM): 87.5%; Cell proliferation rate (%) (PC12-HS cells [2]; 40 nM): 104.8%; Cell proliferation rate (%) (PC12-HS cells [2]; 200 nM): 105.1%; neurocyte growth acceleration activity (in words) (PC12-HS cells [2]): almost no growth acceleration activity
O=S(=O)([O-])CCCN1CCSC1=CC=CC1=[N+](CCCS(=O)(=O)[O-])CCS1.[Na+] [NK-3134] |  | ◯ (the relative value of 130% to 169% was judged to be equivalent to NK-4 (“circle”)) | Neurite-outgrowth rate (%) (PC12-HS cells [1]; 1.000 nM): 18.2%; Neurite-outgrowth rate (%) (PC12-HS cells [1]; 200 nM): 29.4%; neurite-outgrowth promoting activity (in words) (PC12-HS cells [1]; 200 and 1,000 nM, comment on Table 2): almost equivalent neurite-outgrowth promoting rate to NK-4; Cell proliferation rate (%) (PC12-HS cells [2]; 1.000 nM): 122.8%; Cell proliferation rate (%) (PC12-HS cells [2]; 40 nM): 103.9%; Cell proliferation rate (%) (PC12-HS cells [2]; 200 nM): 119.6%; neurocyte growth acceleration activity (in words) (PC12-HS cells [2]): slightly weaker activity than NK-6 and NK-36
